Here are results for nine compounds from patent publication US20190274952A1, “TOPICAL USE OF AN ANTIMICROBIAL FORMULATION” (priority 2013, published 2019).

Data set [1] has as its system Staphylococcus aureus (ATCC 6538). Nature of the data set: Minimal concentration for total antimicrobial activity, AOAC method 955.15 (Phenol Coefficient Method). In kind it is cell-based. As to conditions: agent incorporated into formulation F, contact time 10 minutes. The procedure: The minimum concentration at which a total antimicrobial activity could be observed is determined for selected phenolic compounds of natural origin and selected essential oils using the AOAC method 955.15 (“Phenol Coefficient Method”) with minor modifications. Different concentrations of essential oils and phenolic compounds of natural origin are incorporated into formulation F (see table hereinbelow) and inoculated with a 0.05% bacterial suspension of Staphylococcus aureus (ATCC 6538; concentration of about 8 logs). After a contact time of 10 minutes, 0.1 ml of the inoculated solution is transferred to a broth culture with neutralizing (Difco 268110) and incubated over a period of 72 hours at 37° C. The presence of turbidity in the broth culture is indicative of the survival of the microorganism

For data set [2] the following is noted: cited from earlier work.

Where two headings read alike, the source gives them in different places.

Turning to `Cc1ccc(C(C)C)cc1O` [Carvacrol], the “Minimal Concentration” value in data set [1] amounted to 0.07 v/v %.
As to Sodium Laureth Sulfate, in data set [2] (ingredients of Formulation 1), the “LD50 Oral-rat” value is recorded as above 5000 mg/kg.
As for `CCCCCCCCCCCCCCCC[N+](C)(C)CC(=O)[O-]` [Cetyl Betaine], in data set [2] (ingredients of Formulation 1), the “LD50 Oral-rat” value is 1620 mg/kg.
For the compound `CC(C)=CCCC(C)=CC=O` [Citral], the “Minimal Concentration” value in data set [1] is above 1% v/v %.
Same read-out and setting: under `Cc1ccc(C(C)C)c(O)c1` [Thymol] stands 0.07 v/v %.
For `COCC(C)O` (centres unmarked) [Glycol Ether PM], the “LD50 Oral-rat” value in data set [2] (ingredients of Formulation 1) is reported as 5 210 mg/kg.
As for `C=O` [Formaldehyde], in data set [2] (rat, in vivo, po), the LD50 entry is on record as “of 100 mg/Kg” and the “LD50 Oral-rat” value is listed as 100 mg/kg. Moreover, in data set [2] (rat, in vivo), the Toxicity result is “Toxic”.
As to `C=CCc1ccc(O)c(OC)c1` [Eugenol], the “Minimal Concentration” value in data set [1] is reported as 0.4 v/v %.
On to `OCCCO` [1,3-Propanediol], for which, in data set [2] (ingredients of Formulation 1), the “LD50 Oral-rat” value was >15 000 mg/kg.
